The values that follow come from US7473790B2 (Pfizer Inc., priority 2003, dated 2009).

Read-outs that look alike come from different tables or passages of the source.

The test addresses T1, HCV polymerase (Hepatitis C virus genotype 1b, UniProt P26663).
T1 construct: 2.5 pmoles (0.15 μg) HCV polymerase protein in a final volume of 75 μL
Put plainly: HCV polymerase primer/template-directed transcription assay (32P-GTP incorporation, filter binding). In kind it is biochemical. The conditions noted are these: 30 minutes at 30° C., concentration giving 50% inhibition of polymerase-directed transcription. The method in brief:
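IC50s come from triplicate cpm, refit with an enzyme-concentration (30 nM) correction when under 200 nM. Reactions ran 30 min at 30° C in Tris pH 7.2 with MgCl2, 1 μM GTP spiked with α-32P-GTP, biotin-dG12 primer and poly(rC)300 template, with 1% DMSO. Incorporated label was collected on DE filtermats and counted.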

[1] abbreviates: recombinant HCV polymerase, read-out: IC50.

T1 sequence (P26663 2420-3010): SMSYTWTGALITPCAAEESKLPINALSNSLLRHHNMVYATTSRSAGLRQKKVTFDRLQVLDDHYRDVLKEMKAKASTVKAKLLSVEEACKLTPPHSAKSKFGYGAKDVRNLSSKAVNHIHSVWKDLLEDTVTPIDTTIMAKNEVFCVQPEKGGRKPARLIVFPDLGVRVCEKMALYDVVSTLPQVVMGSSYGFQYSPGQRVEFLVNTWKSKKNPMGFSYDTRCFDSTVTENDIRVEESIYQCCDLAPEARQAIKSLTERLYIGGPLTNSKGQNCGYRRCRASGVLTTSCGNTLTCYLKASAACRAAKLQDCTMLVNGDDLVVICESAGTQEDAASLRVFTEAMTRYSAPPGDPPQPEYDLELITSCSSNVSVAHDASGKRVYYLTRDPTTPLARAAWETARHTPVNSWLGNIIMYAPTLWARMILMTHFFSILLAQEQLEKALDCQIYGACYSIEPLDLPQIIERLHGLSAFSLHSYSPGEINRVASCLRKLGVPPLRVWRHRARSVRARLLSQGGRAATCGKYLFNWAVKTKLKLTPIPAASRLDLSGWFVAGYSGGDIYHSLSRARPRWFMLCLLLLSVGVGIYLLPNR

For the compound `Cc1cnc2nc(CC3=C(O)CC(CCc4ccc(C(C)(C)C#N)c(Cl)c4)(C4CCCC4)OC3=O)nn2c1` (racemic) [A(202), 2-(2-Chloro-4-{2-[2-cyclopentyl-4-hydroxy-5-(6-methyl-[1,2,4]triazolo[1,5-a]pyrimidin-2-ylmethyl)-6-oxo-3,6-dihydro-2H-pyran-2-yl]-ethyl}-phenyl)-2-methyl-propionitrile], the IC50 under setting [1] worked out at 12 nM.

With `CC1(C)C(=O)Oc2ccc(CCC3(C4CCCC4)CC(=O)CC(=O)O3)cc21` (stereo not drawn) [A(68), 6-Cyclopentyl-6-[2-(3,3-dimethyl-2-oxo-2,3-dihydro-benzofuran-5-yl)-ethyl]-dihydro-pyran-2,4-dione], the IC50 under setting [1] was determined as 3400 nM. Same read-out and setting: under `Cc1cnc2nc(CC3C(=O)CC(CCc4ccc(C5(C#N)CC5)c(F)c4)(C4CCCC4)OC3=O)nn2c1` (stereo not drawn) [A(113), 1-(4-{2-[2-Cyclopentyl-5-(6-methyl-[1,2,4]triazolo[1,5-a]pyrimidin-2-ylmethyl)-4,6-dioxo-tetrahydro-pyran-2-yl]-ethyl}-2-fluoro-phenyl)-cyclopropanecarbonitrile] stands 8 nM; under `COc1ccc(CCC2(C3CCCC3)CC(O)=C(Sc3nc(C)cc(C)c3C#N)C(=O)O2)cc1Cl` (stereo not drawn) [C(105), 2-({6-[2-(3-chloro-4-methoxyphenyl)ethyl]-6-cyclopentyl-4-hydroxy-2-oxo-5,6-dihydro-2H-pyran-3-yl}thio)-4,6-dimethylnicotinonitrile], 200 nM. For the compound `COc1ccc(CCC2(C3CCCC3)CC(O)=C(Sc3nnnn3C)C(=O)O2)cc1Cl` (stereo not drawn) [C(38), 6-[2-(3-chloro-4-methoxyphenyl)ethyl]-6-cyclopentyl-4-hydroxy-3-[(1-methyl-1H-tetrazol-5-yl)thio]-5,6-dihydro-2H-pyran-2-one], under setting [1], the 50% inhibitory concentration (IC50) was 280 nM.

As for `CCOc1ccc(CCC2(C3CCCC3)CC(O)=C(Cc3nc4nc(C)cc(C)n4n3)C(=O)O2)cc1C` (stereo not drawn) [B(10), 6-Cyclopentyl-3-(5,7-dimethyl-[1,2,4]triazolo[1,5]pyrimidin-2-ylmethyl)-6-[2-(4-ethoxy-3-methyl-phenyl)-ethyl]-4-hydroxy-5,6-dihydro-pyran-2-one], the IC50 under setting [1] worked out at 53 nM. For the compound `COc1ccc(CCC2(C3CCCC3)CC(O)=C(Sc3nnc(-c4cccnc4)n3C)C(=O)O2)cc1Cl` (stereo not drawn) [C(96)], under setting [1], the IC50 turned out to be 75 nM.

Regarding `COc1ccc(CCC2(C3CCCC3)CC(O)=C(Cc3nc4ccsc4c(=O)[nH]3)C(=O)O2)cc1Cl` (stereo not drawn) [B(56), 2-({6-[2-(3-Chloro-4-methoxyphenyl)ethyl]-6-cyclopentyl-4-hydroxy-2-oxo-5,6-dihydro-2H-pyran-3-yl}methyl)thieno[3,2-d]pyrimidin-4(3H)-one], the IC50 under setting [1] came out at 100 nM. On the same count and under the same terms, in the case of `CCNC(=O)c1ccc(CCC2(C3CCCC3)CC(=O)CC(=O)O2)cc1F` (stereo not drawn) [A(17), 4-[2-(2-Cyclopentyl-4,6-dioxo-tetrahydro-pyran-2-yl)-ethyl]-N-ethyl-2-fluoro-benzamide] it was 23000 nM; in that of `CC(C)Oc1ccc(CCC2(C3CCCC3)CC(O)=C(Sc3nc4cc(Cl)ccc4[nH]3)C(=O)O2)cc1Cl` (stereo not drawn) [C(26), 3-(5-Chloro-1H-benzoimidazol-2-ylsulfanyl)-6-[2-(3-chloro-4-isopropoxy-phenyl)-ethyl]-6-cyclopentyl-4-hydroxy-5,6-dihydro-pyran-2-one], 130 nM; in that of `CCc1cc(CCC2(C3CCCC3)CC(=O)C(Cc3nc4nc(C)cc(C)n4n3)C(=O)O2)ccc1N(C)S(C)(=O)=O` (stereo not drawn) [B(91), 6N-[4-(2-{2-cyclopentyl-5-[(5,7-dimethyl[1,2,4]triazolo[1,5-a]pyrimidin-2-yl)methyl]-4,6-dioxotetrahydro-2H-pyran-2-yl}ethyl)-2-ethylphenyl]-N-methylmethanesulfonamide], 10 nM.

For `CCCc1cc(CCC2(C3CCCC3)CC(=O)CC(=O)O2)ccc1O` (stereo not drawn) [A(90), 6-cyclopentyl-6-[2-(4-hydroxy-3-propylphenyl)ethyl]dihydro-2H-pyran-2,4(3H)-dione], under setting [1], the IC50 was 770 nM. On the same count and under the same terms, under `COc1ccc(CCC2(C3CCCC3)CC(O)=C(Cc3ccc(-n4cccn4)cc3)C(=O)O2)cc1Cl` (stereo not drawn) [B(24), 6-[2-(3-Chloro-4-methoxy-phenyl)-ethyl]-6-cyclopentyl-4-hydroxy-3-(4-pyrazol-1-yl-benzyl)-5,6-dihydro-pyran-2-one] stands 140 nM; under `N#CC1(c2ccc(CCC3(C4CCCC4)CC(=O)CC(=O)O3)cc2F)CCC1` (stereo not drawn) [A(92), 1-{4-[2-(2-Cyclopentyl-4,6-dioxo-tetrahydro-pyran-2-yl)-ethyl]-2-fluoro-phenyl}-cyclobutanecarbonitrile], 1000 nM; under `COc1ccc(CCC2(C3CCCC3)CC(O)=C(Sc3nnc(-c4ccncc4)[nH]3)C(=O)O2)cc1Cl` (stereo not drawn) [C(50), 6-[2-(3-chloro-4-methoxyphenyl)ethyl]-6-cyclopentyl-4-hydroxy-3-[(5-pyridin-4-yl-4H-1,2,4-triazol-3-yl)thio]-5,6-dihydro-2H-pyran-2-one], 10 nM.

As to `COc1ccc(CCC2(C3CCCC3)CC(=O)C(Cc3nccs3)C(=O)O2)cc1Cl` (stereo not drawn) [B(47), 6-[2-(3-chloro-4-methoxyphenyl)ethyl]-6-cyclopentyl-3-(1,3-thiazol-2-ylmethyl)dihydro-2H-pyran-2,4(3H)-dione], the IC50 under setting [1] stood at 800 nM. Still for that read-out and setting: in the case of `Cc1ccc(-c2ccc(CCC3(C4CCCC4)CC(=O)CC(=O)O3)cc2F)s1` (stereo not drawn) [A(12), 6-Cyclopentyl-6-{2-[3-fluoro-4-(5-methyl-thiophen-2-yl)-phenyl]-ethyl}-dihydro-pyran-2,4-dione] it was 18300 nM; in that of `COc1ccc(CCC2(C3CCCC3)CC(=O)CC(=O)O2)cc1[C@@H](C)O` (stereo partly drawn) [B(121), 6-Cyclopentyl-6-{2-[3-(1-hydroxy-ethyl)-4-methoxy-phenyl]-ethyl}-dihydro-pyran-2,4-dione], 6000 nM. The same measure, in the same setting: in the case of `COC(=O)C1(c2cccc(CCC3(C4CCCC4)CC(=O)CC(=O)O3)c2)CC1` (stereo not drawn) [A(69), 1-{3-[2-(2-Cyclopentyl-4,6-dioxo-tetrahydro-pyran-2-yl)-ethyl]-phenyl}-cyclopropanecarboxylic acid methyl ester] it was 9900 nM.

Consider `Cc1cc(C)n2nc(CC3=C(O)CC(CCCCC4CCCCC4)(C4CCCC4)OC3=O)nc2n1` (stereo not drawn) [B(39), 6-(4-Cyclohexyl-butyl)-6-cyclopentyl-3-(5,7-dimethyl-[1,2,4]triazolo[1,5-a]pyrimidin-2-ylmethyl)-4-hydroxy-5,6-dihydro-pyran-2-one], for which, under setting [1], the IC50 is 29 nM.

For `CC(C)Oc1ccc(CCC2(C3CCCC3)CC(O)=C(Cc3nc4ccccc4n3C)C(=O)O2)cc1F` (stereo not drawn) [B(16), 6-Cyclopentyl-6-[2-(3-fluoro-4-isopropoxy-phenyl)-ethyl]-4-hydroxy-3-(1-methyl-1H-benzoimidazol-2-ylmethyl)-5,6-dihydro-pyran-2-one], the IC50 under setting [1] is 900 nM. Same read-out and setting: under `COc1cc(OC)c(CCC2(C3CCCC3)CC(O)=C(Cc3nc(-c4ccccn4)no3)C(=O)O2)cc1Cl` (stereo not drawn) [B(73), 6-[2-(5-Chloro-2,4-dimethoxyphenyl)ethyl]-6-cyclopentyl-4-hydroxy-3-[(3-pyridin-2-yl-1,2,4-oxadiazol-5-yl)methyl]-5,6-dihydro-2H-pyran-2-one] stands 62 nM; under `CNC(=O)c1ccc(CCC2(C3CCCC3)CC(=O)CC(=O)O2)cc1F` (stereo not drawn) [A(11), 4-[2-(2-Cyclopentyl-4,6-dioxo-tetrahydro-pyran-2-yl)-ethyl]-2-fluoro-N-methyl-benzamide], 16700 nM. The same measure, in the same setting: in the case of `Cc1cc(C)n2nc(CC3=C(O)CC(CCc4ccc(O)c(CO)c4)(C4CCCC4)OC3=O)nc2n1` (stereo not drawn) [A(193), 6-Cyclopentyl-3-(5,7-dimethyl-[1,2,4]triazolo[1,5-a]pyrimidin-2-ylmethyl)-4-hydroxy-6-[2-(4-hydroxy-3-hydroxymethyl-phenyl)-ethyl]-5,6-dihydro-pyran-2-one] it was 98 nM; in that of `CCNC(=O)C(C)(C)c1ccc(CCC2(C3CCCC3)CC(=O)CC(=O)O2)cc1` (stereo not drawn) [A(51), 2-{4-[2-(2-Cyclopentyl-4,6-dioxo-tetrahydro-pyran-2-yl)-ethyl]-phenyl}-N-ethyl-isobutyramide], 3900 nM. The same measure, in the same setting: under `CC(C)Oc1ccc(CCC2(C3CCCC3)CC(O)=C(Sc3ncccn3)C(=O)O2)cc1F` (stereo not drawn) [C(11), 6-Cyclopentyl-6-[2-(3-fluoro-4-isopropoxy-phenyl)-ethyl]-4-hydroxy-3-(pyrimidin-2-ylsulfanyl)-5,6-dihydro-pyran-2-one] stands 190 nM; under `CC(C)(C#N)c1ccc(CCC2(C3CCCC3)CC(=O)C(Cc3nc4ncc(Cl)cn4n3)C(=O)O2)cc1F` (stereo not drawn) [A(111), 2-(4-{2-[5-(6-Chloro-[1,2,4]triazolo[1,5-a]pyrimidin-2-ylmethyl)-2-cyclopentyl-4,6-dioxo-tetrahydro-pyran-2-yl]-ethyl}-2-fluoro-phenyl)-2-methyl-propionitrile], 2 nM.

As for `CC(C)(C#N)c1ccc(CCC2(C3CCCC3)CC(=O)CC(=O)O2)cc1F` (stereo not drawn) [A(81), 2-{4-[2-(2-Cyclopentyl-4,6-dioxo-tetrahydro-pyran-2-yl)-ethyl]-2-fluoro-phenyl}-2-methyl-propionitrile], the IC50 (IC50, recombinant HCV polymerase) worked out at 140 nM. As to `CC(C)(C)C(=O)c1ccc(CCC2(C3CCCC3)CC(=O)CC(=O)O2)cc1` (stereo not drawn) [A(37), 6-Cyclopentyl-6-{2-[4-(2,2-dimethyl-propionyl)-phenyl]-ethyl}-dihydro-pyran-2,4-dione], under setting [1], the IC50 is 8700 nM. As to `COc1cc(OC)c(CCC2(C3CCCC3)CC(O)=C(Sc3nnc(-c4ccc(O)cc4)[nH]3)C(=O)O2)cc1Cl` (stereo not drawn) [C(81), 6-[2-(5-chlor-2,4-dimethoxyphenyl)ethyl]-6-cyclopentyl-4-hydroxy-3-{[5-(4-hydroxyphenyl)-4H-1,2,4-triazol-3-yl]thio}-5,6-dihydro-2H-pyran-2-one], under setting [1], the IC50 worked out at 14 nM.
